Test results taken from US20090170808A1, “ORAL AGENT FOR IMPROVING AND PROTECTING THE FUNCTION OF JOINT COMPRISING HYALURONIC ACID-PHOSPHOLIPID COMPLEXES” (priority 2005, published 2009).
Marks after values point to notes of the source that are not given here.

Key:
[1] = test system: papain-induced OA model in rabbit; test: GAG content in knee joint cartilage, papain-induced OA model in rabbit (azure A method); type: in vivo; set-up: unit not given here; settings: n = 6, x ± s
Experimental: (§1) 30 rabbits were randomly divided into five groups, i.e., normal control group; normal saline (NS) injection group; hyaluronic acid (HA) oral administration group; hyaluronic acid (HA) injection group; and hyaluronic acid-phospholipid complex (HA-PL, the complex of Preparation Example 2) oral administration group.
(§2) Using the papain-induced OA model in rabbit, the latter four groups of rabbits received injection of 0.1 ml of a papain solution (1.8 mg papain and 50 mg cysteine hydrochloride in 1 ml normal saline, sterile filtered through a 0.22 μm filter membrane) into the right knee articular cavity. A second injection was performed 3 days later.
Starting on Day 7 post-modeling, the rabbits were dosed. […] For oral administration, the respective agent was given intragastrically every day, at a dosage 40 mg/kg body weight, calculated as hyaluronic acid, in a volume of 1 ml/100 g body weight, for 2 weeks.
(§3) After completion of the administration, synovial fluid was aspirated, and the rabbits were sacrificed. […] The total amount of GAG in the cartilage was determined by the azure A method, and the level of HA in the synovial fluid was determined using an HA RIA kit.
The content of GAG in samples from each group was expressed as the amount contained in every 1 mg wet weight of the cartilage ( x±s), and was analyzed by t-test for significance test.

[2] = test system: papain-induced OA model in rabbit; test: HA content in knee joint synovial fluid, papain-induced OA model in rabbit (HA RIA kit); type: in vivo; settings: n = 6, x ± s
Experimental: as §1, §2
Starting on Day 7 post-modeling, the rabbits were dosed. For administration by injection into joint cavity, a injection volume of 0.3 ml, and a hyaluronic acid concentration of 10 mg/ml were used, once every five days for a total of 3 injections during the test. For oral administration, the respective agent was given intragastrically every day, at a dosage 40 mg/kg body weight, calculated as hyaluronic acid, in a volume of 1 ml/100 g body weight, for 2 weeks.
as §3

[3] = injection into joint cavity, 0.3 ml of 10 mg/ml, once every five days, 3 injections
[4] = oral (intragastric) daily, 40 mg/kg calculated as hyaluronic acid, 2 weeks

Substance: hyaluronic acid [HA]
- GAG Content in knee joint cartilages [1, 3]: 29.9 ± 4.4^1),2) ng · ml^−1
- GAG Content in knee joint cartilages [1, 4]: 23.3 ± 4.2
- HA content in knee joint synovial fluid [2, 3]: 4.64 ± 0.51^1) mg · ml^−1
- HA content in knee joint synovial fluid [2, 4]: 4.65 ± 0.54^1) mg · ml^−1
